Reference: patent US12503453B2, “USP7 inhibition” (Dana-Farber Cancer Institute, Inc., priority 2018, dated 2025)
Where two headings read alike, the source gives them in different places.

Columns and labels:
USP7 catalytic domain = USP7 catalytic domain (Homo sapiens (Human), UniProt Q93009); experiment: MS labeling of purified USP7 catalytic domain (intact MS, CE-MS); type: binding; conditions: 15 minutes incubation
Experimental: Purified USP7 catalytic domain was diluted to 20 μM in 10 μL labeling buffer (20 mM HEPES pH 7.5, 150 mM NaCl, 1 mM TCEP) and incubated for the indicated times with 50 μM (2.5×) compound. After incubation, samples were flash frozen in liquid nitrogen and stored at −80° C. until analysis.
Intact mass analysis was performed by injecting 5 μg USP7 catalytic domain onto a self-packed reversed phase column ( 1/32″ O.D.×500 um I.D., 5 cm of POROS 10R2 resin). After desalting, protein was eluted with an HPLC gradient (0-100% B in 4 minutes, A=0.2M acetic acid in water, B=0.2 M acetic acid in acetonitrile, flow rate ˜30 μL/min) into an LTQ ion trap mass spectrometer (ThermoFisher Scientific, San Jose, CA). Mass spectra were deconvoluted using MagTran1.03b2 software. Zhang, Z. & Marshall, A. G. A universal algorithm for fast and automated charge state deconvolution of electrospray mass-to-charge ratio spectra. J. Am. Soc. Mass Spectrom. 9, 225-233 (1998).
To identify sites of covalent modification, treated protein was reduced (10 mM dithiothreitol), alkylated (22.5 mM iodoacetamide), and digested with trypsin overnight at 37° C. Peptides were desalted using SP3 (Hughes, C. S. et al. Ultrasensitive proteome analysis using paramagnetic bead technology. Mol. Syst. Biol. 10, 757-757 (2014)), dried by vacuum centrifugation, and reconstituted in 1% formic acid/50% acetonitrile with 100 mM ammonium acetate. Peptides were then analyzed by CE-MS using a ZipChip CE system and autosampler (908 Devices, Boston, MA) interfaced to a QExactive HF mass spectrometer (ThermoFisher Scientific, San Jose, CA). Peptide solution was loaded for 30 seconds, and the mass spectrometer was operated in data dependent mode and subjected the 5 most abundant ions in each MS scan (60 k resolution, 3E6 target, lock mass enabled) to MS/MS (15 k resolution, 1E5 target, 100 ms max inject time). Dynamic exclusion was enabled with a repeat count of 1 and an exclusion time of 6 seconds. […]

full length USP7 = full length USP7 (Homo sapiens (Human), UniProt Q93009); experiment: Ub-AMC enzymatic assay with full-length USP7; type: biochemical; conditions: for IC50: 6 hours pre-incubation, Ub-AMC
Experimental: Both constructs were overexpressed in E. coli BL21 (DE3). Cells were grown at 37° C. to an OD of 0.9, cooled to 16° C., induced with 500 μM isopropyl-1-thio-D-galactopyranoside (IPTG), incubated overnight at 16° C., collected by centrifugation, and stored at −80° C. Cell pellets were sonicated in lysis buffer (25 mM Tris pH 8, 1 M NaCl, and 10 mM BME) supplemented with 10 μg/ml phenylmethanesulfonylfluoride (PMSF) and the resulting lysate was centrifuged at 30,000×g for 40 min. Ni-NTA beads (Qiagen) were mixed with lysate supernatant for 2 hours, and washed with lysis buffer supplemented with 25 mM imidazole. The bound protein was eluted with lysis buffer supplemented with 300 mM imidazole. The sample was then concentrated to 1 ml (30 kDa concentrator; Amicon Ultra, Millipore), and run on a Superdex 200 (GE healthcare) in buffer containing 25 mM HEPES pH 7.5, 200 mM NaCl, and 1 mM DTT. Fractions were pooled, concentrated and frozen at −80° C.
Full length USP7 was tested for its activity in Ubiquitin-AMC assay in presence or absence of inhibitors. USP7 (5 nM) was pre-incubated for 6 hours at room temperature with different concentrations of inhibitors or DMSO as a control in 50 mM HEPES pH 7.5, 0.5 mM EDTA, 11 μM ovalbumin, and 5 mM DTT. Ubiquitin-AMC (Boston Biochem) was then added to a final concentration of 500 nM. The initial rate of the reaction was measured by collecting fluorescence data at one minute intervals over 30-minute period using a Clariostar fluorescence plate reader at excitation and emission wavelength of 345 and 445 nm respectively. The calculated initial rate values were plotted against inhibitor concentrations to determine IC50s. All the experimental data were plotted using Prism GraphPad. All assays for each compound were performed at least twice for each compound.

[1] = test system: Ewing sarcoma cell lines, TP53 WT and mutant; experiment: Cell proliferation (CellTiter-Glo), panel of Ewing sarcoma cell lines; type: cell-based; conditions: same set of cell lines
Experimental: Cells were plated in 384-well culture-treated plates and allowed to settle overnight. After drug treatment and appropriate incubation time, cell viability was assessed using the CellTiter-Glo Luminescent Cell Viability Assay (Promega). Luminescence was read on a Fluostar Omega Reader (BMG Labtech).

TC32 cells = experiment: Drug synergy analysis (Chou-Talalay combination index), TC32; type: cell-based
Source text: (§1) Loewe Additivity is a dose-effect approach that estimates the effect of combining two drugs based on the concentration of each individual drug that produces the same quantitative effect (Goldoni and Johansson, 2007). […] They introduced the combination index (CI) scores to estimate the interaction between the two drugs.

MCF7 cells [2] = experiment: Drug synergy analysis (Chou-Talalay combination index), MCF7; type: cell-based
Source text: as §1, with “drugs. If CI<1, the drugs have a synergistic effect, and if CI>1, the drugs have an antagonistic effect. CI=1 means the drugs have an additive effect.” for “drugs.”

[3] = test system: MDM2-p53 signaling axis in MCF7 cells; experiment: Whole cell lysate Western blots of MCF7 cells (MDM2-p53 signaling axis); type: cell-based; conditions: wild-type TP53
MCF7 cells [4] = experiment: Cell cycle analysis by propidium iodide staining; type: cell-based; conditions: 1 μM, 24 hours
Experimental: For propidium iodide (PI) staining, treated cells (˜1 million per condition) were washed with cold PBS, then fixed in 80% ethanol overnight at −20° C. After fixing, cells were pelleted, washed with PBS, and reconstituted in 500 μL FxCycle PI/RNAse A staining solution (Thermo Fisher). Cells were stored overnight at 4° C. and analyzed using a BD Fortessa flow cytometer.

MCF7 cells [5] = experiment: Transcriptome profiling, 3' Digital Gene Expression RNA-seq; type: cell-based; conditions: 24 hours, low or high doses
Source text: Overall, transcripts were detected for 7000-10,000 genes (7276 genes detected across all conditions).
The same report had also identified a set of dimerization partner, Retinoblastoma-like, E2F and multi-vulval class B (DREAM) complex target genes by combining p53 repression data (generated in part with Nutlin-3A-treated MCF7 cells) with cell cycle expression and DREAM component binding.

[6] = Table 1, read-out: IC50 (nM), USP7 activity in USP7 assay
[7] = Table 3, read-out: IC50 (μM), USP7 activity in USP7 assay

full length USP7, sequence (Q93009 whole entry): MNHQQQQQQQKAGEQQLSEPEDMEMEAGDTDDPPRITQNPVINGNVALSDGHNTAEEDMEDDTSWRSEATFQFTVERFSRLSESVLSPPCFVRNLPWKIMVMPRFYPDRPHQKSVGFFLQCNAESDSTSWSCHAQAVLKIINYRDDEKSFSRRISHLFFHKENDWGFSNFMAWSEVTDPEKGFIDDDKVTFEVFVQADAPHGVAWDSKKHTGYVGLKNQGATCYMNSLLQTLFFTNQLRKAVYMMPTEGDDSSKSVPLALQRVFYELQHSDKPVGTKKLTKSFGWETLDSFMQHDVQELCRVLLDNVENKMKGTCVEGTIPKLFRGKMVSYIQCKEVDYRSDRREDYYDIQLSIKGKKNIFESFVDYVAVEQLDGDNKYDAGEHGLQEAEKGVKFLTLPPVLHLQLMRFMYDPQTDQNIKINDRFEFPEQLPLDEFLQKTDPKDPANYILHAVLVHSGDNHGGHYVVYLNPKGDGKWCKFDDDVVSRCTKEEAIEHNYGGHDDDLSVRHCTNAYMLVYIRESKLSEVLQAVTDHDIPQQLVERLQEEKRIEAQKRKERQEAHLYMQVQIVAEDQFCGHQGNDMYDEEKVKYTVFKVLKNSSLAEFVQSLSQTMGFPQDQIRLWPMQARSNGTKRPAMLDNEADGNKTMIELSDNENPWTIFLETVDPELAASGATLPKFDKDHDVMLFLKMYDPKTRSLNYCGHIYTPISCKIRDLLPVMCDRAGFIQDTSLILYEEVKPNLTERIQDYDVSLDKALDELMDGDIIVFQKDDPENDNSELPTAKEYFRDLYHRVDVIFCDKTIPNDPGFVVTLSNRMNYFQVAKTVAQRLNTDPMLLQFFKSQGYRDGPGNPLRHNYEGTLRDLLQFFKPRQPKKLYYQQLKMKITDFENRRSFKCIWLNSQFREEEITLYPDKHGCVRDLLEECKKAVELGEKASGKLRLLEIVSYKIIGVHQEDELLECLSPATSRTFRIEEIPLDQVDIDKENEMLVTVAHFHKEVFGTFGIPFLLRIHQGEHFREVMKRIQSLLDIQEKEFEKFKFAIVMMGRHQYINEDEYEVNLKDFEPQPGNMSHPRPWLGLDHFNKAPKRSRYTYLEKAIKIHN
USP7 catalytic domain, sequence (Q93009 208-560): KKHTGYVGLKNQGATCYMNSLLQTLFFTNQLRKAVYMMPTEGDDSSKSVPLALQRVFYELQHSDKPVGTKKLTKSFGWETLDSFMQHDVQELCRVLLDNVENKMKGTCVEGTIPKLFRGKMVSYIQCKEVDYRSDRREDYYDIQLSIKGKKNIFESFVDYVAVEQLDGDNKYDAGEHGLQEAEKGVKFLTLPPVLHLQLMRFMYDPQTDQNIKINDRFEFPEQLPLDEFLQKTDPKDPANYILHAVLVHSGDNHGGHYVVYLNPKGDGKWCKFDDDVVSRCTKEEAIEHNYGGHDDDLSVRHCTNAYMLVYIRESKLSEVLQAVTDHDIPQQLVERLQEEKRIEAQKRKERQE

**Q.** Which results are given for `CN1CCN(CCC(=O)Nc2ccc3c(=O)n(CC4(O)CCN(C(=O)C(CCCNC(=O)c5ccc6cc7c(nc6c5)CCCC7)Cc5ccccc5)CC4)cnc3c2)CC1` (centres unmarked) [compound 40, N-(4-benzyl-5-(4-hydroxy-4-((7-(3-(4-methylpiperazin-1-yl)propanamido)-4-oxoquinazolin-3(4H)-yl)methyl)piperidin-1-yl)-5-oxopentyl)-5,6,7,8-tetrahydroacridine-3-carboxamide]?
**A.** labeling of USP7 catalytic domain by MS (USP7 catalytic domain): unable to label the USP7 catalytic domain; IC50 against USP7 (range in words) (full length USP7; full-length USP7, Ub-AMC): nanomolar range

**Q.** How did the “specificity for TP53-WT expressing cells” value [1] turn out when `CCc1c(-c2ccc3[nH]ncc3c2)cnc(N)c1-c1ccc(O)cc1` [GNE6640] was run?
**A.** little to no specificity for TP53-WT expressing cells

**Q.** `COc1cccc2c1C(=O)c1c(O)c3c(c(O)c1C2=O)C[C@@](O)(C(=O)CO)C[C@@H]3O[C@H]1C[C@H](N)[C@H](O)[C@H](C)O1` [doxorubicin] was tested. Which “combination index with compound 6” value (TC32 cells) did it give?
**A.** < 0.6

**Q.** What about the “interaction in combination with compound 6” value (“interaction in combination” for short) (MCF7 cells [2]) of the same compound?
**A.** mixed synergy and antagonism

**Q.** `COc1cc(C(=O)O)ccc1NC(=O)[C@@H]1N[C@@H](CC(C)(C)C)[C@](C#N)(c2ccc(Cl)cc2F)[C@H]1c1cccc(Cl)c1F` [RG7388] was tested. Which “combination index with compound 6” value (TC32 cells) did it give?
**A.** < 0.6

**Q.** Which “combination index with compound 6” value (TC32 cells) does the source give for `Cc1ncc(Cl)cc1NCc1ccc(C(=O)N[C@@H](CC2CCCC2)C(=O)NC2CC2)s1` [GSK2830371] here?
**A.** < 0.6

**Q.** And the “interaction in combination” value (MCF7 cells [2])?
**A.** mixed synergy and antagonism

**Q.** Which MDM2 protein level [3] does the source give for `CN1CCN(CCC(=O)Nc2ccc3c(=O)n(CC4(O)CCN(C(=O)[C@H](CCCNC(=O)c5ccc6c(Cl)c7c(nc6c5)CCCC7)Cc5ccccc5)CC4)cnc3c2)CC1` [compound 7, (R)-N-(4-benzyl-5-(4-hydroxy-4-((7-(3-(4-methylpiperazin-1-yl)propanamido)-4-oxoquinazolin-3(4H)-yl)methyl)piperidin-1-yl)-5-oxopentyl)-9-chloro-5,6,7,8-tetrahydroacridine-3-carboxamide] here?
**A.** did not exert any of the same effects

**Q.** What about the cell cycle effect (MCF7 cells [4]) of the same compound?
**A.** did not exert any of the same effects

**Q.** And the transcriptional profile (MCF7 cells [5])?
**A.** highly correlated with the vehicle (DMSO)-treated control cells

**Q.** How did the IC50 (full length USP7; [6]) turn out when `CN1CCN(CCC(=O)Nc2ccc3c(=O)n(CC4(O)CCN(C(=O)CCCCCNC(=O)c5ccc6nc7c(c(Cl)c6c5)CCCC7)CC4)cnc3c2)CC1` was run?
**A.** 20 to 100 nM

**Q.** How did the IC50 (full length USP7; [7]) turn out when `O=C(CCN1CCOCC1)Nc1ccc2c(=O)n(CC3(O)CCN(C(=O)C(CCCNC(=O)c4ccc5c(Cl)cc(C(F)(F)F)nc5c4)Cc4ccccc4)CC3)cnc2c1` (centres unmarked) was run?
**A.** 100 to 1000 nM

**Q.** `CN1CCN(CCC(=O)Nc2ccc3c(=O)n(CC4(O)CCN(C(=O)C(CCCNC(=O)c5ccc6c(Cl)c7c(nc6c5)CCC7)Cc5ccccc5)CC4)cnc3c2)CC1` (centres unmarked) was tested. Which IC50 (full length USP7; [6]) did it give?
**A.** < 20 nM

**Q.** `C=CC(=O)NCCCC(Cc1ccccc1)C(=O)N1CCC(O)(Cn2cnc3cc(NC(=O)CCN4CCN(C)CC4)ccc3c2=O)CC1` (centres unmarked) was tested. Which IC50 (full length USP7; Table 2, read-out: IC50 (μM), USP7 activity in USP7 assay) did it give?
**A.** < 20 nM

**Q.** `CN1CCN(CCC(=O)Nc2ccc3c(=O)n(CC4(O)CCN(C(=O)C(CCCNC(=O)c5ccc6c(Cl)cc(C7CCCCC7)nc6c5)Cc5ccccc5)CC4)cnc3c2)CC1` (centres unmarked) was tested. Which IC50 (full length USP7; [7]) did it give?
**A.** 20 to 100 nM

**Q.** `CN(C)C(=O)/C=C/c1ccc(C(=O)NCCC[C@@H](Cc2ccccc2)C(=O)N2CCC(O)(Cn3cnc4cc(NC(=O)CCN5CCOCC5)ccc4c3=O)CC2)cn1` was tested. Which IC50 (full length USP7; [6]) did it give?
**A.** > 1000 nM

**Q.** Which IC50 (full length USP7; [7]) does the source give for `O=C(CCN1CCOCC1)Nc1ccc2c(=O)n(CC3(O)CCN(C(=O)[C@H](Cc4ccccc4)n4ccnn4)CC3)cnc2c1` here?
**A.** > 1000 nM

**Q.** How did the IC50 (full length USP7; [7]) turn out when `CN1CCN(CCC(=O)Nc2ccc3c(=O)n(CC4(O)CCN(C(=O)C(CCCNC(=O)c5ccc6c(Cl)cc(-c7ccc(F)cc7)nc6c5)Cc5ccccc5)CC4)cnc3c2)CC1` (centres unmarked) was run?
**A.** 20 to 100 nM

**Q.** How did the IC50 (full length USP7; [6]) turn out when `O=C(CCN1CCOCC1)Nc1ccc2c(=O)n(CC3(O)CCN(C(=O)[C@H](Cc4c[nH]cn4)NC(=O)CNC(=O)c4ccc5c(Cl)c6c(nc5c4)CCCC6)CC3)cnc2c1` was run?
**A.** < 20 nM

**Q.** Which IC50 (full length USP7; [7]) does the source give for `COc1cccc(CC(CCCNC(=O)c2ccc3c(Cl)c4c(nc3c2)CCCC4)C(=O)N2CCC(O)(Cn3cnc4cc(NC(=O)CCN5CCN(C)CC5)ccc4c3=O)CC2)c1` (centres unmarked) here?
**A.** > 1000 nM

**Q.** For `CN1CCN(CCC(=O)Nc2ccc3c(=O)n(CC4(O)CCN(C(=O)[C@@H](Cc5ccccc5)NC(=O)CNC(=O)c5ccc6c(Cl)ccnc6c5)CC4)cnc3c2)CC1`, which IC50 (full length USP7; [7]) is on record?
**A.** 20 to 100 nM

**Q.** Which IC50 (full length USP7; [6]) does the source give for `CN1CCN(CCC(=O)Nc2ccc3c(=O)n(CC4(O)CCN(C(=O)C(CCCNC(=O)c5cc(C(=O)CCl)cn5C)Cc5ccccc5)CC4)cnc3c2)CC1` (centres unmarked) here?
**A.** > 1000 nM

**Q.** `COc1cc([C@@H]2c3cc4c(cc3[C@@H](O[C@@H]3O[C@@H]5CO[C@@H](C)O[C@H]5[C@H](O)[C@H]3O)[C@H]3COC(=O)[C@H]23)OCO4)cc(OC)c1O` [etoposide] was tested. Which “interaction in combination” value (MCF7 cells [2]) did it give?
**A.** mixed synergy and antagonism

**Q.** How did the IC50 (full length USP7; [7]) turn out when `O=C(NCCCC(Cc1ccccc1)C(=O)N1CCC(O)(Cn2cnc3cc(OCCN4CCOCC4)ccc3c2=O)CC1)c1ccc2c(Cl)c3c(nc2c1)CCCC3` (centres unmarked) was run?
**A.** 20 to 100 nM

**Q.** With `CN1CCN(CCC(=O)Nc2ccc3c(=O)n(CC4(O)CCN(C(=O)[C@H](Cc5ccccc5)NC(=O)CN(C)C(=O)c5ccc6c(Cl)c7c(nc6c5)CCCC7)CC4)cnc3c2)CC1` as the compound, how does the IC50 (full length USP7; [6]) read?
**A.** < 20 nM
